Data from patent US5608095A, “Alkyl-4-silyl-phenols and esters thereof as antiatherosclerotic agents” (Hoechst Marion Roussel, Inc., priority 1996, dated 1997).
Like-named read-outs stand apart in the source and are kept apart here.

Legend:
[1] = Clinical chemistries in serum of rats; assay type: in vivo, male Sprague-Dawley rats; conditions: for response vs control in vivo at 0.3 %: Rattus norvegicus, po, 96 h; for ALP (alkaline phosphatase), percent of control / ALT (alanine aminotransferase), percent of control / AST (aspartate aminotransferase), percent of control / GLUC (glucose), percent of control: rat serum, diet 0.3%, 4 days
Source text: (§1) A typical experiment consisted of 4-6 groups of rats (N=5 per group) with 1 group being a control which received no MDL compound and the other groups being treated with 0.3% MDL compound. Some of the compounds were either repeated at 0.3% or evaluated again at the lower dose of 0.1%. Male Sprague-Dawley rats, 50-100 g, (Harlan Laboratories, Indianapolis, Ind.) were housed in groups of 5, fed ad libitum water and Purina Rodent chow (#5002) with or without MDL compound as a dietary admixture for 4 days. Dietary admixtures (0.3%) were made by mixing 1.2 grams of an MDL compound with 400 grams of Purina rodent chow (#5002). The MDL compound was mixed with approximately 50 grams of food using a mortar and pestle. This was added to the remainder of the food and mixed for 3 hours on a rotary mixer. In the morning of day 5, non-fasted rats were anesthetized with carbon dioxide, and blood was collected by cardiac puncture. Rats were sacrificed by cervical dislocation. Body weights and liver weights were recorded in grams. Food consumption was recorded as grams.cndot.day^-1.cndot.rat^-1. Deaths were recorded as mortality. Aliquots of fresh serum were used for clinical chemistries, thiobarbituric acid reactive substances (TBARS) and conjugated diene measurements. Aliquots of serum (~0.5mL) and whole livers were frozen at -20° C. for compound and metabolite concentration determination at a later time.
Blood was allowed to clot at room temperature for 30 minutes. Serum was obtained after centrifugation for 10 min at 4° C. at 3000 rpm in a Beckman J-6M/E centrifuge with a JS-4.2 rotor. Fresh serum was analyzed by a COBAS MIRA S autoanalyzer (Roche Diagnostics) using Roche diagnostic reagents for the following clinical chemistry measurements: alkaline phosphatase (ALP, kit #44553), alanine transaminase (ALT, kit #42375), aspartate aminotransferase (AST, kit #42381), total cholesterol (CHOL, kit #44334), triglyceride (TG, kit #44120), and glucose (GLU, kit #44558). ALP, ALT, and AST were calculated as units/L. Cholesterol, triglycerides, and glucose were calculated as mg/dL.

[2] = system: oxidation of serum lipids; experiment: TBARS assay, rat serum; assay type: in vivo, male Sprague-Dawley rats; conditions: Rattus norvegicus, po, 96 h, read-out: TBARS, percent of control
Source text: as §1
In this assay the oxidation of serum lipids is initiated with CuSO4, resulting in the formation of aldehydes, such as malondialdehyde (MDA). Upon incubation with thiobarbituric acid, the absorbance of the aldehydes can be detected at 530-540 nm. As stated in the previous example, TBARS values which are lower than control serum values indicate the relative ability of a test compound to inhibit the oxidation of lipids in a sample. TBARS were measured as follows: 100 μL of serum were mixed with 400 μL of a 5 mmol CuSO4 solution and incubated at 37° C. for 3 hr. The reactions were stopped by addition of 1.0 mL of 20% trichloroacetic acid. Then 1.0 mL of 0.67% thiobarbituric acid in 0.05N sodium hydroxide was added, mixed, and the samples incubated for 30 min at 90° C. Samples were centrifuged briefly to pellet undissolved material, and the supernatants were transferred to a 96-well microtiter plate. Absorbances were measured at 540 nm using a Biotek model EL311 microplate reader. The nmoles of MDA produced were calculated from a standard curve of 0 to 10 nmoles of MDA prepared from malonaldehyde bis(dimethylacetal). Serum samples from treated rats were compared to serum samples from control rats that received no MDL compound.

[3] = Animal parameters (food, body weight, liver weight, mortality) in rats; assay type: in vivo, male Sprague-Dawley rats; conditions: diet 0.3%, 4 days; for mortality at 96 h: in vivo, po, read-out: mortality (deaths per group); for mortality at 96 h / body wt., percent of control / lw/bw (liver weight/body weight), percent of control: rat
Source text: as §1

oxidation of lipids = experiment: Conjugated diene determination, rat serum; assay type: in vivo, male Sprague-Dawley rats; conditions: pooled rat serum, diet 0.3%, 4 days, mean of 2 determinations
Source text: as §1
Conjugated diene lag phase is another indicator of the oxidation of lipids. Lipids exposed to Cu^++ form conjugated dienes that absorb ultraviolet light in the range of 230 to 235 nm. The lag phase of diene formation gives an indication of the amount of oxidation of the lipids. A lag phase longer than control samples indicate inhibition of the oxidation. Conjugated diene lay phase was determined using a Varian DMS200 spectrophotometer (fitted with a constant temperature, 5 cuvette sample changer) at 30° C. Twenty (20) μL of pooled serum were added to cuvettes containing 3.0 mL phosphate buffered saline, pH 7.5, and mixed. The absorbances of all cuvettes were measured, and the instrument baseline was set to zero using the lowest absorbing sample. Next, 100 μL of 1 mmol CuSO4 were added and immediately mixed. The absorbance of each cuvette was recorded at 2 min intervals for a period of 840 min. The data were captured and transferred to a Microsoft EXCEL® spreadsheet where the curves were smoothed and differentials obtained. Lag times were determined mathematically as minutes. Serum samples were pooled (N=5); data presented are the mean values of 2 determinations. Serum samples from treated rats were compared to serum samples from control rats that received no MDL compound.

[4] = HPLC quantitation of compound and metabolite concentration in rat serum and liver; assay type: in vivo, male Sprague-Dawley rats; conditions: diet 0.3%, 4 days; for Liver Parent = parent compound concentration: rat liver; for Serum Parent = parent compound concentration: rat serum
Source text: as §1
Serum and liver concentrations of parent compound and the metabolites, bisphenol and diphenoquinone, were determined by reverse phase HPLC using a Waters 990 Powerline system. Livers (1 gram samples) were homogenized with 5.0 mL PBS, pH 7.4, using a Polytron tissue homogenizer at setting 5 for 20-30 seconds. Serum or liver homogenates were extracted as follows: 100μL of either serum or homogenate were added to 2.0 mL diethyl ether:ethanol (3:1) while vortexing the tube. The sample tubes were capped and centrifuged for 10 min at 5° C. at 3500 rpm in a Beckman GPKR centrifuge with a GH 3.7 rotor. The supernatants were transferred to clean tubes and dried under N2. Samples were reconstituted with 200 μL of acetonitrile:hexane:0.1M ammonium acetate (90:6.5:3.5, by vol.). Then, 100 μL were injected onto a Waters Deltapak C18-300 Å column, and eluted with an 83% acetonitrile:17% water mobile phase at a flow rate of 1.5 mL/min. Absorbances at the wavelengths of 240, 254, and 420 nm were recorded. Compound concentrations were calculated from known quantities of authentic parent compounds after correction for recovery; the range of recovery from spiked samples was 40 to 100%. The lowest detectable limit for this class of compounds was ~0.5 μg/mL. […]. Concentrations were calculated as μg/mL of serum and μg/g of liver.

VCAM-1 = conditions: vascular endothelial cells; cited from earlier work
[5] = read-out: CHOL (total cholesterol), percent of control
[6] = read-out: TRIG (triglycerides), percent of control

| Compound | response vs control in vivo at 0.3 % [1, 5] [%] | response vs control in vivo at 0.3 % [1, 6] [%] | ALP (alkaline phosphatase), percent of control [1] [%] | ALT (alanine aminotransferase), percent of control [1] [%] | AST (aspartate aminotransferase), percent of control [1] [%] | GLUC (glucose), percent of control [1] [%] | response vs control in vivo at 0.3 % [2] [%] | food (grams eaten per day per rat), percent of control [3] [%] | mortality at 96 h [3] [%] | body wt., percent of control [3] [%] | lw/bw (liver weight/body weight), percent of control [3] [%] | CONJ. DIENE (conjugated diene lag phase) (oxidation of lipids) [min] | Liver Parent = parent compound concentration [4] [µg/g] | Serum Parent = parent compound concentration [4] [µg/mL] | inhibition of cytokine-induced expression of VCAM-1 (VCAM-1) |
| --- | --- | --- | --- | --- | --- | --- | --- | --- | --- | --- | --- | --- | --- | --- | --- |
| CC(C)(C)c1cc(OC[Si](C)(C)c2ccccc2)ccc1OC(=O)CCC(=O)O [MDL 104,399, 2-t-Butyl-4-[(dimethylphenylsilyl)methyloxy]phenol succinic acid ester] | 130 | 168 | 91 | 107 | 102 | 88 | 41 | 90 | 0 | 101 | 118 | 395 | 0 | 0 | – |
| CC(=O)N[C@@H](CS)C(=O)O [N-acetylcysteine] | – | – | – | – | – | – | – | – | – | – | – | – | – | – | inhibit cytokine-induced expression of VCAM-1 |
| CC(=O)Oc1cc(C(C)(C)C)c(OC[Si](C)(C)c2ccccc2)cc1C(C)(C)C [MDL 106,290, 2,5-Di-t-butyl-4-[(dimethylphenylsilyl)methyloxy]phenol acetic acid ester] | 153 | 75 | 118 | 89 | 84 | 109 | 17 | 108 | 0 | 95 | 104 | 372 | – | – | – |
| S=C(S)N1CCCC1 [pyrollidine dithiocarbamate] | – | – | – | – | – | – | – | – | – | – | – | – | – | – | inhibit cytokine-induced expression of VCAM-1 |
| CC(=O)Oc1c(C)cc(OC[Si](C)(C)c2ccccc2)c(C)c1C [MDL 103,157, 2,3,6-Trimethyl-4-[(dimethylphenylsilyl)methyloxy]phenol acetic acid ester] | 112 | 82 | 144 | 133 | 92 | 100 | 94 | 96 | 0 | 96 | 120 | 50 | 0 | 0 | – |
